In brackets after ≈: the same amount, converted by molar mass. One block for each compound: values may come before it.
Experiments:
[1] = AUC in mouse at 50 mg/kg, po after 4 hrs; format: ADME, organism-based; design: time < 4 hr, dose 50 mg/kg, route oral; conditions: plasma
[2] = biological target: T1, Tyrosine-protein kinase JAK3 (Homo sapiens, UniProt P52333); experiment: Inhibition of JAK3
T1 sequence (P52333 whole entry): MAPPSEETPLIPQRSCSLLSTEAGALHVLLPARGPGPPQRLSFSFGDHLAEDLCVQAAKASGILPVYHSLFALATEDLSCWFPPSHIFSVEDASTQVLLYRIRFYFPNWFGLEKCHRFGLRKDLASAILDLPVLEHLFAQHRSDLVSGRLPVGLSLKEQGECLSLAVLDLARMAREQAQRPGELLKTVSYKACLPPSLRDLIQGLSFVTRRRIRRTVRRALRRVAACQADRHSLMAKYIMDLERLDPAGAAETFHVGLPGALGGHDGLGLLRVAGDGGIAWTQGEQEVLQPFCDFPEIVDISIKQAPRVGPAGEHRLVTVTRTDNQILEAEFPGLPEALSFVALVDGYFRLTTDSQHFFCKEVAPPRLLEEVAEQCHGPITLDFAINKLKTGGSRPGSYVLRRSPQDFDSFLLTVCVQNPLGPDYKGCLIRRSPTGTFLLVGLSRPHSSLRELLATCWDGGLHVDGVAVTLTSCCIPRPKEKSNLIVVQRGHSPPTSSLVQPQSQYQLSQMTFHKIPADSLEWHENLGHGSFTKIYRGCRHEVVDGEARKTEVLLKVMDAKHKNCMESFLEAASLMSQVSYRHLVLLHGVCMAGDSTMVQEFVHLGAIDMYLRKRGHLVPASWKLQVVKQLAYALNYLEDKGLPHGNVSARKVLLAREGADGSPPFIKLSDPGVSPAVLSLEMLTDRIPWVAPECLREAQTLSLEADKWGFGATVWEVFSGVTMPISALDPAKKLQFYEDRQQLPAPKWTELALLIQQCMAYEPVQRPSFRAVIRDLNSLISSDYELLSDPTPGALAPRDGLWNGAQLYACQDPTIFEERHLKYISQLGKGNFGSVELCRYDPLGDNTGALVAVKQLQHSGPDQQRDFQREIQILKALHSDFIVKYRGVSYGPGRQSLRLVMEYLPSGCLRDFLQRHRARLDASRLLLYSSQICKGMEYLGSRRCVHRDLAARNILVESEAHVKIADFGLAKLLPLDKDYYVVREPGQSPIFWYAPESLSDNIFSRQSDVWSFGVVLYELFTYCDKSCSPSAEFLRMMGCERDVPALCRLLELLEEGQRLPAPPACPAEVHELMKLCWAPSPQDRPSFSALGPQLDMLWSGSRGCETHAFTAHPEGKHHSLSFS

hERG (KCNH2) = hERG (KCNH2) (Homo sapiens, UniProt Q12809); experiment: Inhibition of human ERG at 10 uM by patch clamp method
[3] = Half life in BALB/c mouse at 5 mg/kg, iv; format: ADME, organism-based; design: dose 5 mg/kg, route intravenous; conditions: in vivo
[4] = biological target: Epidermal growth factor receptor (Homo sapiens, UniProt P00533); experiment: Inhibition of EGFR
Chain of Epidermal growth factor receptor (P00533 whole entry): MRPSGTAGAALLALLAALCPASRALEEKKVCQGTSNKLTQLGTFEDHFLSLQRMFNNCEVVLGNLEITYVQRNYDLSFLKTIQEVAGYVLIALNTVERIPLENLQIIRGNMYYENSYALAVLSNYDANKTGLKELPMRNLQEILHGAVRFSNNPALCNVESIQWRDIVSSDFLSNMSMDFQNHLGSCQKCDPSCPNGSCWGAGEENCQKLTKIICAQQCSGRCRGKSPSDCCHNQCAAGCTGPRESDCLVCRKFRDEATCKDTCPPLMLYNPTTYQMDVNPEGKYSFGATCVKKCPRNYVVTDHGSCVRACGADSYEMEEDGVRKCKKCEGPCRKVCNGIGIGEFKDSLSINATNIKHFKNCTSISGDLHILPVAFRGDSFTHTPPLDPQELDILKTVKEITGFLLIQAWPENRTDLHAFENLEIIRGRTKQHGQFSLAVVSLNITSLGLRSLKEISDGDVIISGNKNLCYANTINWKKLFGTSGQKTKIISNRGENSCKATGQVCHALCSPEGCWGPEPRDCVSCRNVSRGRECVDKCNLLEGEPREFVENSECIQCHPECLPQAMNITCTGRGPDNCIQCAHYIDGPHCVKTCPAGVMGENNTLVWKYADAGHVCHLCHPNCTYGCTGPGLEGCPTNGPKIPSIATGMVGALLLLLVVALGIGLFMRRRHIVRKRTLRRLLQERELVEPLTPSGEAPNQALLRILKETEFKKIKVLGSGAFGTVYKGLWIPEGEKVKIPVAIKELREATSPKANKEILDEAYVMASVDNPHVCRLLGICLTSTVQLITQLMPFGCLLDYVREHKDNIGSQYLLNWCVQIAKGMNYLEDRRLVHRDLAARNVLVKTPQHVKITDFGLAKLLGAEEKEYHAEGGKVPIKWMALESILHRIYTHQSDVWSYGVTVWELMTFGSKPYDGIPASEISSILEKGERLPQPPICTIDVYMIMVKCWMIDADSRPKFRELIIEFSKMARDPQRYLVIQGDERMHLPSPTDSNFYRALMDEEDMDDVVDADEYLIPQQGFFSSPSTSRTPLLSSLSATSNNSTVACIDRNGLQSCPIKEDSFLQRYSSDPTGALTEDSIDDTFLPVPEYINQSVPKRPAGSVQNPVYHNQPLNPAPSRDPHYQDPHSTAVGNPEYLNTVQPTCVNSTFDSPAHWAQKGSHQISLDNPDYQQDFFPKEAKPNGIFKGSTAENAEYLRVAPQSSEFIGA

[5] = Clearance in BALB/c mouse at 5 mg/kg, iv; format: ADME, organism-based; design: dose 5 mg/kg, route intravenous; conditions: in vivo
[6] = Total AUC in BALB/c mouse at 5 mg/kg, iv; format: ADME, organism-based; design: time AUCmax, dose 5 mg/kg, route intravenous; conditions: in vivo
[7] = Mean resident time in BALB/c mouse at 5 mg/kg, iv; format: ADME, organism-based; design: dose 5 mg/kg, route intravenous; conditions: in vivo
[8] = Half life in BALB/c mouse at 30 mg/kg, po; format: ADME, organism-based; design: dose 30 mg/kg, route oral; conditions: in vivo
[9] = biological target: Receptor tyrosine-protein kinase erbB-2 (Homo sapiens, UniProt P04626); experiment: Inhibition of HER2
Chain of Receptor tyrosine-protein kinase erbB-2 (P04626 whole entry): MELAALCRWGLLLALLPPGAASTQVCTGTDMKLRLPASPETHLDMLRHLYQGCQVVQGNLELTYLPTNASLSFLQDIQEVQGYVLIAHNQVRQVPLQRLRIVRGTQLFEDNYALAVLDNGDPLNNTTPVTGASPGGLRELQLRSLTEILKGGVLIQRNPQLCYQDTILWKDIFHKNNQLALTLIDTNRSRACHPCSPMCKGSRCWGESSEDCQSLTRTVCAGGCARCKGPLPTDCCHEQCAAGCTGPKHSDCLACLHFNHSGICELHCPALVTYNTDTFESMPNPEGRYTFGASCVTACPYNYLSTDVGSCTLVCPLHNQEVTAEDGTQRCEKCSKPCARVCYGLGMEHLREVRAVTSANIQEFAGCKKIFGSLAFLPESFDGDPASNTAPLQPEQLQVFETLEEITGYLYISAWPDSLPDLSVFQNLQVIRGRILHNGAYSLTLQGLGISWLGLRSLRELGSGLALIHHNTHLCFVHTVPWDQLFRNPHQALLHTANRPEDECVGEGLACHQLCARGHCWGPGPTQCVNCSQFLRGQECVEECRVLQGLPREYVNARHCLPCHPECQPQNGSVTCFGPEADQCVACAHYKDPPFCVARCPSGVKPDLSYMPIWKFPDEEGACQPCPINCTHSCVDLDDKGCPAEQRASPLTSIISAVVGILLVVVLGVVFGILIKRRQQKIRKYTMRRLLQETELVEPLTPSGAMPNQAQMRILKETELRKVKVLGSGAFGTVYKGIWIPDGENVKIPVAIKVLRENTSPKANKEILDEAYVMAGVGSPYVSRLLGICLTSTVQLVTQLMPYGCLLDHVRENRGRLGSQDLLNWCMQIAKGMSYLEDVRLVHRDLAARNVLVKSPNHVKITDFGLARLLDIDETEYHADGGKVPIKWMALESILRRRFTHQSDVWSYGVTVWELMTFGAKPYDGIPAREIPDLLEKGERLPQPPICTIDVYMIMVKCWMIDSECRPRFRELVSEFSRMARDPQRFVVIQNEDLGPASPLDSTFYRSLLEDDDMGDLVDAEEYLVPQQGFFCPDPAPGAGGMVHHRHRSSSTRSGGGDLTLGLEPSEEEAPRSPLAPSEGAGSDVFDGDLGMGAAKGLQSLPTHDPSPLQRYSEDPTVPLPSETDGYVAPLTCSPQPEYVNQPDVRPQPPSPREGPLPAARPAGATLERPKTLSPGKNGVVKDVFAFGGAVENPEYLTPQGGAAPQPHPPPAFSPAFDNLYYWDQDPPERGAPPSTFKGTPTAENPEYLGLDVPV

[10] = biological target: Tyrosine-protein kinase Lck (Homo sapiens, UniProt P06239); experiment: Inhibition of LCK
[11] = Volume of distribution at steady state in BALB/c mouse at 5 mg/kg, iv; format: ADME, organism-based; design: dose 5 mg/kg, route intravenous; conditions: in vivo, read-out: Vdss
[12] = biological target: Protein kinase C alpha type (Homo sapiens, UniProt P17252); experiment: Inhibition of PKCalpha
[13] = biological target: Vascular endothelial growth factor receptor 2 (Homo sapiens, UniProt P35968)
Description: Inhibition of human VEGFR2

[14] = biological target: Fibroblast growth factor receptor 1 (Homo sapiens, UniProt P11362); experiment: Inhibition of FGFR1
Cytochrome P450 3A4 = Cytochrome P450 3A4 (Homo sapiens, UniProt P08684); experiment: Inhibition of CYP3A4; format: ADME
Chain of Cytochrome P450 3A4 (P08684 whole entry): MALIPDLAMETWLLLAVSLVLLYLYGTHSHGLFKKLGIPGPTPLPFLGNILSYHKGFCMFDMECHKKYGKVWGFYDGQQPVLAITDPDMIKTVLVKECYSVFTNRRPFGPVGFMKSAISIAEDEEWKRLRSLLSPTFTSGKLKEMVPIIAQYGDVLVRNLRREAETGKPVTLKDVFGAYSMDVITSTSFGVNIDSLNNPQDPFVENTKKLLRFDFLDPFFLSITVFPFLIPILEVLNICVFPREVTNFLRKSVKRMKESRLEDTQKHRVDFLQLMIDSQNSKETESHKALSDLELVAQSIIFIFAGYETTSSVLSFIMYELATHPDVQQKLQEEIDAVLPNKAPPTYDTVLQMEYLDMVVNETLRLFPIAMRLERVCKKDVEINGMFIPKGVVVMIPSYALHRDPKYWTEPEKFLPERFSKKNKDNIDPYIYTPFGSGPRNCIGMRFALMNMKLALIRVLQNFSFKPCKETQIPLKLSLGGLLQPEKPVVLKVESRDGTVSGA

[15] = Oral bioavailability in BALB/c mouse at 30 mg/kg; conditions: in vivo
[16] = biological target: Platelet-derived growth factor receptor beta (Homo sapiens, UniProt P09619); experiment: Inhibition of PDGFRbeta
Chain of Platelet-derived growth factor receptor beta (P09619 whole entry): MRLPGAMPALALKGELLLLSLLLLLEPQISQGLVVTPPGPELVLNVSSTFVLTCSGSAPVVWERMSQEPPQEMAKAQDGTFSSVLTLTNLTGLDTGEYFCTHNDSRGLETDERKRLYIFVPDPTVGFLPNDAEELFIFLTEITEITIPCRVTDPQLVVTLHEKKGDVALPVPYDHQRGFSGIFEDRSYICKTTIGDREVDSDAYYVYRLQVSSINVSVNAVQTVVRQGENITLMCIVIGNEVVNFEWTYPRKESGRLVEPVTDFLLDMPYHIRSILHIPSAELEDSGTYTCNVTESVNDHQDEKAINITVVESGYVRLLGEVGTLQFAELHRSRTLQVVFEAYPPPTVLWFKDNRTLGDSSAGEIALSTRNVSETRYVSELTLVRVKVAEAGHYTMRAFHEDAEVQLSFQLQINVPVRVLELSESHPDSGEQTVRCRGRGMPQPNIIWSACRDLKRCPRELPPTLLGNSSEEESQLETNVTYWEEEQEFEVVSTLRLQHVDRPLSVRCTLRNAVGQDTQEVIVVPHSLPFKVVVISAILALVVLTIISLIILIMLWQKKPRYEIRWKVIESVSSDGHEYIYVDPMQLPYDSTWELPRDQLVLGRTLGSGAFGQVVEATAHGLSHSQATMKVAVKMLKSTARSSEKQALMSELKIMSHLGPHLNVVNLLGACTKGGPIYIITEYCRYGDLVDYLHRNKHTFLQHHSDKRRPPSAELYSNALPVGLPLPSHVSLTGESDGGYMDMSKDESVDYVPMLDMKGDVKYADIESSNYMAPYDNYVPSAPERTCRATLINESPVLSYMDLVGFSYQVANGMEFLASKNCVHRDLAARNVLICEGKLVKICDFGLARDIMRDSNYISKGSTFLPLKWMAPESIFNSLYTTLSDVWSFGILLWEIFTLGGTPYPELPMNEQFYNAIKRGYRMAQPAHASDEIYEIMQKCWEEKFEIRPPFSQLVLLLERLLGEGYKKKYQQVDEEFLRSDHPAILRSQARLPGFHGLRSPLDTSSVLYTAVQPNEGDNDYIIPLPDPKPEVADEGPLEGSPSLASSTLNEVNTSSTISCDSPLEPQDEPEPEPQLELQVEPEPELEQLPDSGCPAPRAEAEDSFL

[17] = Total AUC in BALB/c mouse at 30 mg/kg, po; format: ADME, organism-based; design: time AUCmax, dose 30 mg/kg, route oral; conditions: in vivo
Mus musculus [18] = experiment: Toxicity in human L2987 cells xenografted mouse assessed as morbidity at 15 mg/kg, po; format: organism-based; design: dose 15 mg/kg, route oral; conditions: in vivo
HUVEC [19] = experiment: Antiproliferative activity against bFGF-induced HUVEC; format: functional, cell-based; conditions: Homo sapiens
[20] = Aqueous solubility at pH 6.5; format: physicochemical; conditions: buffer
[21] = Antitumor activity against human H1993 cells; format: functional, cell-based; conditions: NCI-H1993
Mus musculus [22] = experiment: Toxicity in human L2987 cells xenografted mouse assessed as weight loss at 7.5 mg/kg, po; format: organism-based; design: dose 7.5 mg/kg, route oral; conditions: in vivo
[23] = Antitumor activity against human GTL16 cells; format: functional, cell-based; conditions: GTL 16
L2987 [24] = experiment: Antitumor activity against human L2987 cells xenografted mouse at 15 mg/kg, po after 4 days; format: functional
[25] = biological target: Voltage-gated inwardly rectifying potassium channel KCNH2 (Homo sapiens, UniProt Q12809); experiment: Inhibition of human ERG by patch clamp method
[26] = AUC in human L2987 cells xenografted mouse at 7.5 mg/kg, po after 24 hrs; format: ADME, organism-based; design: time < 24 hr, dose 7.5 mg/kg, route oral; conditions: in vivo
L2987 [27] = experiment: Antitumor activity against human L2987 cells xenografted in mouse; format: functional, cell-based
Mus musculus [28] = experiment: Toxicity in human L2987 cells xenografted mouse assessed as weight loss at 15 mg/kg, po; format: organism-based; design: dose 15 mg/kg, route oral; conditions: in vivo
[29] = Cmax in human L2987 cells xenografted mouse at 7.5 mg/kg, po after 24 hrs; format: ADME, organism-based; design: dose 7.5 mg/kg, route oral; conditions: in vivo
[30] = Cmax in human L2987 cells xenografted mouse at 15 mg/kg, po after 24 hrs; format: ADME, organism-based; design: dose 15 mg/kg, route oral; conditions: in vivo
[31] = biological target: Vascular endothelial growth factor receptor 2 (Mus musculus, UniProt P35918); experiment: Inhibition of mouse Flk1
[32] = Tmax in BALB/c mouse at 30 mg/kg, po; conditions: in vivo
[33] = AUC in human L2987 cells xenografted mouse at 15 mg/kg, po after 24 hrs; format: ADME, organism-based; design: time < 24 hr, dose 15 mg/kg, route oral; conditions: in vivo
HUVEC [34] = experiment: Antiproliferative activity against VEGF-induced HUVEC; format: functional, cell-based; conditions: Homo sapiens
L2987 [35] = experiment: Antitumor activity against human L2987 cells xenografted mouse at 7.5 mg/kg, po after 4 days; format: functional
[36] = Aqueous solubility at pH 2; format: physicochemical; conditions: buffer
Rattus norvegicus = experiment: AUC in rat at 30 mg/kg; format: ADME, organism-based, Plasma; design: dose 30 mg/kg; conditions: in vivo
NCI-N87 = experiment: Antitumor activity against human N87 cells; format: functional, cell-based
[37] = biological target: Vascular endothelial growth factor receptor 1 (Homo sapiens, UniProt P17948); experiment: Inhibition of VEGFR1
L2987 [38] = experiment: Antitumor activity against po dosed human L2987 cells xenografted mouse after 24 hrs; format: functional
[39] = Oral bioavailability in rat at 30 mg/kg; format: ADME, organism-based; conditions: in vivo
Mus musculus [40] = experiment: Toxicity in human L2987 cells xenografted mouse assessed as morbidity at 7.5 mg/kg, po; format: organism-based; design: dose 7.5 mg/kg, route oral; conditions: in vivo

AUC at 4 h [1]: 11.1 µM·h
Structure (SMILES): Cc1c(OC[C@@H](C)O)cn2ncnc(Oc3cnc4[nH]ccc4c3F)c12

Structure (SMILES): Cc1nnc(-c2cn3ncnc(Nc4cnc5[nH]ccc5c4)c3c2C(C)C)o1
IC50 [2]: > 50000 nM
inhibition at 10 µM (hERG (KCNH2)): 29%
half-life [3]: 1.2 h
IC50 [4]: 150 nM
clearance [5]: 18 mL/min/kg
AUC [6]: 12.4 µM·h
MRT [7]: 1.7 h
half-life [8]: 4.5 h
IC50 [9]: 500 nM
IC50 [10]: 185 nM
Vd [11]: 1.9 L/kg
IC50 [12]: > 50000 nM
IC50 [13]: 31 nM
IC50 [14]: 61 nM
IC50 (Cytochrome P450 3A4): > 40000 nM
bioavailability [15]: 29%
IC50 [16]: 389 nM
AUC [17]: 21.7 µM·h

AUC at 4 h [1]: 29.6 µM·h
Structure (SMILES): Cc1cc2c(F)c(Oc3ncnn4cc(OC[C@@H](C)O)c(C)c34)cnc2[nH]1

solubility [20]: 2.8 µg/mL (≈ 7.21 µM)
IC50 [2]: > 50000 nM
IC50 [21]: > 10000 nM
IC50 [23]: > 10000 nM
AUC at 24 h [26]: 11 µM·h
half-life [3]: 2.9 h
IC50 (L2987 [27]): > 2500 nM
IC50 [4]: > 1000 nM
clearance [5]: 8.5 mL/min/kg
Cmax [29]: 1030 nM
Cmax [30]: 2640 nM
IC50 [31]: 53 nM
AUC [6]: 25 µM·h
Tmax [32]: 0.5 h
MRT [7]: 2.7 h
half-life [8]: 2.5 h
AUC at 24 h [33]: 30 µM·h
IC50 [9]: > 5000 nM
IC50 [10]: > 2000 nM
solubility [36]: 400 µg/mL (≈ 1030 µM)
Vd [11]: 1.4 L/kg
IC50 [12]: > 50000 nM
IC50 [13]: 25 nM
IC50 [14]: 78 nM
AUC (Rattus norvegicus): 287 µM·h
IC50 (NCI-N87): > 10000 nM
IC50 (Cytochrome P450 3A4): 11500 nM
IC50 [37]: 268 nM
bioavailability [39]: 68%
bioavailability [15]: > 100%
IC50 [16]: > 2000 nM
AUC [17]: 182 µM·h
Structure (SMILES): Cc1cc2cc(Nc3ncnn4cc(-c5nnc(C)o5)c(C(C)C)c34)cnc2[nH]1
Activity (Mus musculus [18]): Non-toxic
IC50 (HUVEC [19]): 138 nM
Activity (Mus musculus [22]): Non-toxic
Activity (L2987 [24]): >=50%
IC50 [25]: 6600 nM
inhibition at 10 µM (hERG (KCNH2)): 64%
Activity (Mus musculus [28]): Non-toxic
IC50 (HUVEC [34]): 13 nM
Activity (L2987 [35]): >=50%
Activity (L2987 [38]): Dose-dependent effect
minimal effective dose (L2987 [38]; read-out: MED): 7.5 mg/kg
Activity (Mus musculus [40]): Non-toxic

AUC at 4 h [1]: 136 µM·h
Structure (SMILES): Cc1cc2c(F)c(Oc3ncnn4cc(OC[C@@H](C)O)c(C)c34)ccc2[nH]1 [BRIVANIB]

half-life [3]: 2.8 h
clearance [5]: 4.5 mL/min/kg
AUC [6]: 46 µM·h
MRT [7]: 4.3 h
half-life [8]: 2.8 h
Vd [11]: 1.2 L/kg
IC50 (Cytochrome P450 3A4): 6400 nM
bioavailability [15]: 99%
AUC [17]: 272 µM·h
Structure (SMILES): CNc1nnc(-c2cn3ncnc(Nc4cnc5[nH]c(C)cc5c4)c3c2C(C)C)o1

From ChEMBL document CHEMBL1145598, “Discovery and preclinical studies of 5-isopropyl-6-(5-methyl-1,3,4-oxadiazol-2-yl)-N-(2-methyl-1H-pyrrolo[2,3-b]pyridin-5-yl)pyrrolo[2,1-f][1,2,4]triazin-4-amine (BMS-645737), an in vivo active potent VEGFR-2 inhibitor” (Bioorg Med Chem Lett, 2008)
